Results on two compounds are retold here after ChEMBL document CHEMBL1145312, “Structure-activity relationships of triazolopyridine oxazole p38 inhibitors: identification of candidates for clinical development” (Bioorg Med Chem Lett, 2006).

Converted amounts (≈) assume the structure as drawn. Bounds are passed on as bounds.

For data set [1], the target named is Tyrosine-protein kinase CSK (Homo sapiens, UniProt P41240). The experiment in a line: Inhibition of CSK.
Data set [2] has as its target T1, Serine/threonine-protein kinase Sgk1 (Homo sapiens, UniProt O00141).
T1 sequence (O00141 whole entry): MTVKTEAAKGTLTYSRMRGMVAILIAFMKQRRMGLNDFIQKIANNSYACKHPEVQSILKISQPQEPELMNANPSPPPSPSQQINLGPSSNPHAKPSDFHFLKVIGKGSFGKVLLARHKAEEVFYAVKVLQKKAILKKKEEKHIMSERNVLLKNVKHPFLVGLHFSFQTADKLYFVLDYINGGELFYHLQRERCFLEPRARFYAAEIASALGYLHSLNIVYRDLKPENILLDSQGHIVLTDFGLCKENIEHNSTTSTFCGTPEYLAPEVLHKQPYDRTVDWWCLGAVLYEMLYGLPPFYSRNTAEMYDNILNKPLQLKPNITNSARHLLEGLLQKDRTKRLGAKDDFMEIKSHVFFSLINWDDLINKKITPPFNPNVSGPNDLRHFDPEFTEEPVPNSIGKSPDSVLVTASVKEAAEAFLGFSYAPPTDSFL
In words: Inhibition of SGK.

Data set [3] can be described thus: Inhibition of PKC.
The species named for another data set is Homo sapiens. The experiment in a line: Inhibition of LPS-induced TNFalpha production in human whole blood. Type of data set: functional, organism-based.
Another data set deals with Monocyte. In words: Inhibition of LPS-induced TNFalpha production in human monocytes. Type of data set: functional, cell-based.
Data set [4] deals with Cyclin-dependent kinase 2 (Homo sapiens, UniProt P24941). In words: Inhibition of CDK2.
Data set [5] has as its target c-Jun N-terminal kinase, JNK (Homo sapiens, UniProt P45983+P53779+P45984). In words: Inhibition of JNK. Type of data set: protein assay.
In data set [6] the target is T2, MAP kinase-activated protein kinase 5 (Homo sapiens, UniProt Q8IW41).
T2 sequence (Q8IW41 whole entry): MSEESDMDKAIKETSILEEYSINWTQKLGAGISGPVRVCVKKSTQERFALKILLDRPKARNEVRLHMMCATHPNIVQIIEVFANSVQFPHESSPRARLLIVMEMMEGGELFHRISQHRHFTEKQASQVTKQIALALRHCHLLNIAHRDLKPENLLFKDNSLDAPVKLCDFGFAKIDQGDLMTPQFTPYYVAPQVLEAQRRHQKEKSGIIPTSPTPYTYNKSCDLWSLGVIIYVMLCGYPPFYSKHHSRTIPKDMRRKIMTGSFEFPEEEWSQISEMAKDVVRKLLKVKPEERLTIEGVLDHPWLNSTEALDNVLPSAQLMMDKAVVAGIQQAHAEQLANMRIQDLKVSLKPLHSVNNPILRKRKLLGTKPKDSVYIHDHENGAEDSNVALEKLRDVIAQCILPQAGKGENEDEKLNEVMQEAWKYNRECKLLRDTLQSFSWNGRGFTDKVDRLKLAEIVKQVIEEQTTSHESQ
The experiment in a line: Inhibition of PRAK.

Data set [7] addresses MAP kinase-activated protein kinase 2 (Homo sapiens, UniProt P49137). In words: Inhibition of MAPKAP-K2.
Data set [8] has as its target Protein kinase C alpha type (Homo sapiens, UniProt P17252). In words: Inhibition of PKCalpha.
The target of data set [9] is Dual specificity mitogen-activated protein kinase kinase 1 (Homo sapiens, UniProt Q02750). The experiment in a line: Inhibition of MKK1.
The target of data set [10] is Rho-associated protein kinase 2 (Homo sapiens, UniProt O75116). In words: Inhibition of ROCK2.
Data set [11] deals with Tyrosine-protein kinase Lck (Homo sapiens, UniProt P06239). The experiment in a line: Inhibition of Lck.
Data set [12] addresses AMP-activated protein kinase, AMPK. The experiment in a line: Inhibition of AMPK. Type of data set: protein-complex assay.
The target in data set [13] is Mitogen-activated protein kinase 14 (Homo sapiens, UniProt Q16539). The experiment in a line: Inhibition of p38alpha.
Chain of Mitogen-activated protein kinase 14 (Q16539 whole entry): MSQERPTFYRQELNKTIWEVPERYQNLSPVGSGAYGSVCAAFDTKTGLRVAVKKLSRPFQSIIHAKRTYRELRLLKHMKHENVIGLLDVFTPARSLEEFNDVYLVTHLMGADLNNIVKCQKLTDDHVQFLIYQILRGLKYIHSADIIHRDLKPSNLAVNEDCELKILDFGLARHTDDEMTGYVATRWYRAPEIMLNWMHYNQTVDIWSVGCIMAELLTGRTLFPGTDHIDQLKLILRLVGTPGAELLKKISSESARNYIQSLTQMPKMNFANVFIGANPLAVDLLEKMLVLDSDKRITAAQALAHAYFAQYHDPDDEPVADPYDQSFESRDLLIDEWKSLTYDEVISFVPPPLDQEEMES
Data set [14] addresses Ribosomal protein S6 kinase (P70S6K) (Homo sapiens, UniProt P23443+Q9UBS0). In words: Inhibition of P70S6K. In kind it is protein-complex assay.
Data set [15] deals with Glycogen synthase kinase-3 beta (Homo sapiens, UniProt P49841). In words: Inhibition of GSK3-beta.
Chain of Glycogen synthase kinase-3 beta (P49841 whole entry): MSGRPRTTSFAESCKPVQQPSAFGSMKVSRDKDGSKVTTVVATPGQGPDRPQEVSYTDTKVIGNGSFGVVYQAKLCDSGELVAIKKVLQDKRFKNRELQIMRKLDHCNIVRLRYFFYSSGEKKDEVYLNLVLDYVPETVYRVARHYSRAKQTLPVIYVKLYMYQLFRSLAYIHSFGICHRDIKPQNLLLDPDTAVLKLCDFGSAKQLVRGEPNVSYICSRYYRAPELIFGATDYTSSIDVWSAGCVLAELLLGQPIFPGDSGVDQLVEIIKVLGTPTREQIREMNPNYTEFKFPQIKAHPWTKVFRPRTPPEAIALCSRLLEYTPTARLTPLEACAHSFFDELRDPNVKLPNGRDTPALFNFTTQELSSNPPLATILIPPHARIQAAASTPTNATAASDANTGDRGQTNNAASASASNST
Data set [16] addresses Dual specificity tyrosine-phosphorylation-regulated kinase 1A (Homo sapiens, UniProt Q13627). The experiment in a line: Inhibition of DYRK1a.
Data set [17] addresses T3, hERG (KCNH2) (Homo sapiens, UniProt Q12809). In words: Inhibition of hERG channel current in HEK293 cells at 3 uM. In kind it is toxicity, cell-based. Particulars: HEK293 cells that express hERG. Background: Block of hERG is tested as a sign of cardiac risk.
Data set [18] in a line: Inhibition of PI3K.
For data set [19], the target named is Mitogen-activated protein kinase 1 (Homo sapiens, UniProt P28482). The experiment in a line: Inhibition of ERK2.
Data set [20] addresses T4, Serine/threonine-protein kinase Chk1 (Homo sapiens, UniProt O14757).
T4 sequence (O14757 whole entry): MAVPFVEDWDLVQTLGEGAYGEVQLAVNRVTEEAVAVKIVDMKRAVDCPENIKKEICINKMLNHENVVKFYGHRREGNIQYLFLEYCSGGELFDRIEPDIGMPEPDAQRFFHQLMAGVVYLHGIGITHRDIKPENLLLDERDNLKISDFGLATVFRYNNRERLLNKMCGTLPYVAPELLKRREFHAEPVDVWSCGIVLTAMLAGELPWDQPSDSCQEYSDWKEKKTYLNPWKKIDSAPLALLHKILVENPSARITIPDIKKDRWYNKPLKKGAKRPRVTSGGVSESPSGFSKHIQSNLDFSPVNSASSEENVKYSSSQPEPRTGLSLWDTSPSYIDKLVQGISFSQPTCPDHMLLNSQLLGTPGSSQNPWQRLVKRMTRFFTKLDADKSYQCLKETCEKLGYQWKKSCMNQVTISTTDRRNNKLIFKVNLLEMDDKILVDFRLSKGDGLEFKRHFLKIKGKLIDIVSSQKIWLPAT
In words: Inhibition of CHK1.

Data set [21] can be described thus: Inhibition of phosphorylase kinase.
Data set [22] concerns the target T5, Mitogen-activated protein kinase 12 (Homo sapiens, UniProt P53778).
T5 sequence (P53778 whole entry): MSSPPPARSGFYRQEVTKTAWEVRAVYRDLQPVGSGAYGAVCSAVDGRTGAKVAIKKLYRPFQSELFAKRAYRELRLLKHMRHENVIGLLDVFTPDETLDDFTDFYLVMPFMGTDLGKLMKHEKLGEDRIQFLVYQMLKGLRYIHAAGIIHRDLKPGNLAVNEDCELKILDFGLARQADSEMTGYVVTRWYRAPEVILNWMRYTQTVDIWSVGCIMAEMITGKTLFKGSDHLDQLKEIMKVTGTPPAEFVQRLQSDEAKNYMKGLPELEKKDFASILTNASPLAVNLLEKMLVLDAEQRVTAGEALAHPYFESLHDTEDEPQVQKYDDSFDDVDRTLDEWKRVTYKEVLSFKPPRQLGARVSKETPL
The experiment in a line: Inhibition of p38-gamma.

In data set [23] the test system is Rattus norvegicus. The experiment in a line: Inhibition of LPS-induced TNFalpha release in rat at 3 mg/kg. Type of data set: functional.
The target in data set [24] is Ribosomal protein S6 kinase alpha-1 (Homo sapiens, UniProt Q15418). In words: Inhibition of MAPKAP-K1a.
Chain of Ribosomal protein S6 kinase alpha-1 (Q15418 whole entry): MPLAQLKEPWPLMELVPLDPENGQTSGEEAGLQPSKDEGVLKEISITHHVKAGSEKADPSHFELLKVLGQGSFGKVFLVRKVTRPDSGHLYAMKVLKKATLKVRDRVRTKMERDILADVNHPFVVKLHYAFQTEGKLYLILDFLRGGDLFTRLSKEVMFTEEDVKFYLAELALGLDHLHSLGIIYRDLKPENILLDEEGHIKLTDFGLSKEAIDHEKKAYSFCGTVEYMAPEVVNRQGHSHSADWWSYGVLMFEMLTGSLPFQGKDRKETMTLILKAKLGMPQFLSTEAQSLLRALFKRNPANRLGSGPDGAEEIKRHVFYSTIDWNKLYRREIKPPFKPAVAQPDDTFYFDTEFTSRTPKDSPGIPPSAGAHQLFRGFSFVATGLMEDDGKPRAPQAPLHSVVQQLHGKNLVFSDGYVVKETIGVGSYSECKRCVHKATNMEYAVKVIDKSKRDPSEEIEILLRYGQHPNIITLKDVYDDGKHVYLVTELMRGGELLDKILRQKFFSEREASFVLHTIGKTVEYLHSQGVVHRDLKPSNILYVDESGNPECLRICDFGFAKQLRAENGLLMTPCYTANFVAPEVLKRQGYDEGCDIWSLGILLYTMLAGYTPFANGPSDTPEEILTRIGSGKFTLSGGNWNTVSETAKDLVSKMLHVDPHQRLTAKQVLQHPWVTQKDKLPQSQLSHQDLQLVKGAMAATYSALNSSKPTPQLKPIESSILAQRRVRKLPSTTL
Another data set concerns the target Casein kinase II (Homo sapiens, UniProt P19784+P67870+P68400). In words: Inhibition of CK2. In kind it is protein-complex assay.
Data set [25] addresses RAC-alpha serine/threonine-protein kinase (Homo sapiens, UniProt P31749). The experiment in a line: Inhibition of PKBalpha.
Data set [26] addresses Ribosomal protein S6 kinase alpha-5 (Homo sapiens, UniProt O75582). The experiment in a line: Inhibition of MSK1.
The nature of data set [27]: Solubility in PBS buffer at ph 6.5. In kind it is physicochemical.
Data set [28] in a line: Bioavailability in monkey. Type of data set: ADME, organism-based, Macaca mulatta. The settings on record: rhesus monkey, in vivo.
For data set [29], the species on record is Rattus norvegicus. The experiment in a line: Inhibition of LPS-induced TNFalpha release in rat. Type of data set: functional.
The nature of data set [30]: Volume of distribution in rat. Type of data set: ADME, organism-based. Particulars: in vivo, read-out: Vdss.
Data set [31] is described as follows: Permeability from basolateral to apical side of Caco-2 cell membrane. In kind it is ADME, cell-based. Particulars: human. In general terms: Passage across Caco-2 layers is used to estimate intestinal permeability.
Data set [32] is described as follows: Volume of distribution in monkey. Particulars: rhesus monkey, in vivo; read-out: Vdss. In kind it is ADME, organism-based, Macaca mulatta.
The nature of data set [33]: Permeability from apical to basolateral side of Caco-2 cell membrane. In kind it is ADME, cell-based. Particulars: human.
Data set [34] can be described thus: Bioavailability in rat. In kind it is ADME, organism-based. The settings on record: in vivo.
In data set [35] the target is T3, hERG (KCNH2). The experiment in a line: Inhibition of hERG channel current in HEK293 cells at 1 uM. Type of data set: toxicity, cell-based. The settings on record: HEK293 cells that express hERG.

T3 sequence (Q12809 whole entry): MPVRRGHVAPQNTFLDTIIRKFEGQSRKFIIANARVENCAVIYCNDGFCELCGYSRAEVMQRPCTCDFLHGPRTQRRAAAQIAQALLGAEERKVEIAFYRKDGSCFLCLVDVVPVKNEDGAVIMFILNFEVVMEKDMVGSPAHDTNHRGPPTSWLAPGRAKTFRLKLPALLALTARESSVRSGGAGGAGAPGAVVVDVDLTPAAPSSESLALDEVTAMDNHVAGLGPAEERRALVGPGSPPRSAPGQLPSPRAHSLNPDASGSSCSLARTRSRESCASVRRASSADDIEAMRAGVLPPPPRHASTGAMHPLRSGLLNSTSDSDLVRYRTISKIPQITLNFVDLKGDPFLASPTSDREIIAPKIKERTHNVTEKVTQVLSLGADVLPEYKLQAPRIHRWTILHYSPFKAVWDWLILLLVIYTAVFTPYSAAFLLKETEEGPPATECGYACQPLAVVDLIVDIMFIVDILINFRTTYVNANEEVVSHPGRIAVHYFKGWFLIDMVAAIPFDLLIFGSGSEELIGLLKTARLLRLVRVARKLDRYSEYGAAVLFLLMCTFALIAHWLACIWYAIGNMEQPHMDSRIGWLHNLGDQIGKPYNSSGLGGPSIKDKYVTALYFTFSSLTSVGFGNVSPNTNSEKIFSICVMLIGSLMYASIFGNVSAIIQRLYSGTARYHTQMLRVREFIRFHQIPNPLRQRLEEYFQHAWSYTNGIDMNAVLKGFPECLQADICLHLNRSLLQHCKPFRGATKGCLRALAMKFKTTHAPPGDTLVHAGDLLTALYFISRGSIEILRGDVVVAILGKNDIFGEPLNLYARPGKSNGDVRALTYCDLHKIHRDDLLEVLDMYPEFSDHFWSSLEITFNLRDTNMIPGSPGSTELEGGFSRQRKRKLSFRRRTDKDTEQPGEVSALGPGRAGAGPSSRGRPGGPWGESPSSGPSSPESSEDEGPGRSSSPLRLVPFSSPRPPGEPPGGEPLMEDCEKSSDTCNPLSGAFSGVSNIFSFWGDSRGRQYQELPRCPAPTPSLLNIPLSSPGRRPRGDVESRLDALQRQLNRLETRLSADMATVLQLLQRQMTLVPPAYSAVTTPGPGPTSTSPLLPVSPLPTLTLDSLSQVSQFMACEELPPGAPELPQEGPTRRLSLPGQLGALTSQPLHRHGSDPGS
Chain of Ribosomal protein S6 kinase (P70S6K) (Q9UBS0 whole entry): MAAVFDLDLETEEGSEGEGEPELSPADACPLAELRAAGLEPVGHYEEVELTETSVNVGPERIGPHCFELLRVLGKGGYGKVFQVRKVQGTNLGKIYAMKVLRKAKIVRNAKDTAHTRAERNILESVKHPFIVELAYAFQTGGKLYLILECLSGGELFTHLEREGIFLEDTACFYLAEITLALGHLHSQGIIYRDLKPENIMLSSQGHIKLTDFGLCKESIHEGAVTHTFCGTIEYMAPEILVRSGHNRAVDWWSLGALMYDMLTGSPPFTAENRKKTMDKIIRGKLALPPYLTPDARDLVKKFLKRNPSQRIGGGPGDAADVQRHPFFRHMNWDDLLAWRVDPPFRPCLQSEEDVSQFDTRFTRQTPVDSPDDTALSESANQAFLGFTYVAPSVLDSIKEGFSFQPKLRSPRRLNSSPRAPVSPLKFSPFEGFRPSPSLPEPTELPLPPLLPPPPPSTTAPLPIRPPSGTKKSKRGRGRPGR
Chain of Ribosomal protein S6 kinase (P70S6K) (P23443 whole entry): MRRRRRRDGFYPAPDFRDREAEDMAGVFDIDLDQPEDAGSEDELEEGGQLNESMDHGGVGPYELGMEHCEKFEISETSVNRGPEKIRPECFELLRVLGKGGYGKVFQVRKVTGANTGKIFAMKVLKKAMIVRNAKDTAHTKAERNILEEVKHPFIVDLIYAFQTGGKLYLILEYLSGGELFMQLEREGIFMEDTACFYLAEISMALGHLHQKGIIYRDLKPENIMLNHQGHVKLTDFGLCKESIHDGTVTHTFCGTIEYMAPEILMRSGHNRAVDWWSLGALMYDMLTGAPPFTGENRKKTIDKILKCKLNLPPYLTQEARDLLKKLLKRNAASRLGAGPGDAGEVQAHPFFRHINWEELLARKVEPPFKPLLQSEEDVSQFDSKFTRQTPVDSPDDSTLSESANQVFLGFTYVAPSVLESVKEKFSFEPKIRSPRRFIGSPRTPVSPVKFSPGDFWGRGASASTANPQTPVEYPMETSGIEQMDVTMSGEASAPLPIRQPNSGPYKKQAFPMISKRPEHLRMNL
Chain of Ribosomal protein S6 kinase alpha-5 (O75582 whole entry): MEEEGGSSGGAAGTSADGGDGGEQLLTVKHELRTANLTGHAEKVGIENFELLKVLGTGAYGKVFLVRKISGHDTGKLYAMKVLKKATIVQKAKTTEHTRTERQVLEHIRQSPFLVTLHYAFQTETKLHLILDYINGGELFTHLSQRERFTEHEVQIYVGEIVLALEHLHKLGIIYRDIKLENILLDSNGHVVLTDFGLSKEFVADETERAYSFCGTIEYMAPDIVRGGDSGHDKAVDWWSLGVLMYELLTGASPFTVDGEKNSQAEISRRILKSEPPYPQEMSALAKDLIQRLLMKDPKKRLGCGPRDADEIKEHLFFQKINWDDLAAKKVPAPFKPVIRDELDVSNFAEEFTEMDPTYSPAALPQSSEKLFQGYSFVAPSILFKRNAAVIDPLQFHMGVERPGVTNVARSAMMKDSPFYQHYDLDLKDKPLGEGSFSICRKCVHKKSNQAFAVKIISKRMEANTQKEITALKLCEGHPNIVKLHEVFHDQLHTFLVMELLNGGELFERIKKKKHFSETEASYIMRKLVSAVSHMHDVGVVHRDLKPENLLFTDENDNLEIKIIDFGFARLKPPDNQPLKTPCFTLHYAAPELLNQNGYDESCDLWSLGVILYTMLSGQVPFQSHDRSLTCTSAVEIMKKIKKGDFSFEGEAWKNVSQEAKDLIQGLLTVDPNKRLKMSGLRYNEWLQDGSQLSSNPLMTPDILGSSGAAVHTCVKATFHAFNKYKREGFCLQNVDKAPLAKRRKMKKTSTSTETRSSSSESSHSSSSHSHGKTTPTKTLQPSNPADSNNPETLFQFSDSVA
Chain of MAP kinase-activated protein kinase 2 (P49137 whole entry): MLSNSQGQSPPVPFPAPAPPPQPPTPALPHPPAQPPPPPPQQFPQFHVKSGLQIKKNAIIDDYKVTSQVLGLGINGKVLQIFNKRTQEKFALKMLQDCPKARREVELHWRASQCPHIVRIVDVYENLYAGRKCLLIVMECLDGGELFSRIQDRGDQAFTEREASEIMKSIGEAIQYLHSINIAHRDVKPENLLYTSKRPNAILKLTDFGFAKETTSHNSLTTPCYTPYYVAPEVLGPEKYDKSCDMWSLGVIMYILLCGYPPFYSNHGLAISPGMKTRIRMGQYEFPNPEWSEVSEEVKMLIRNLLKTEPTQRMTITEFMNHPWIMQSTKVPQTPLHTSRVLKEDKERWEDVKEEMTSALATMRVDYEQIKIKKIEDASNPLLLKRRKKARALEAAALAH

In the case of `CC(C)c1nnc2ccc(-c3ocnc3-c3ccc(F)cc3Cl)cn12`, the IC50 in [1] is greater than 10 µM; in data set [2], greater than 10 µM; in data set [3] it was greater than 10 µM; in the data set filed under Homo sapiens, 0.38 µM; in the data set with Monocyte, 0.0245 µM; in data set [4], greater than 10 µM. Besides, the IC50 in data set [5], in data set [6], in data set [7], in [8], in data set [9] and in data set [10] was greater than 10 µM each time. For the same compound, the 50% inhibitory concentration (IC50) in data set [11] is greater than 10 µM; in data set [12], greater than 10 µM; in data set [13], 0.0025 µM; in data set [14] it was greater than 10 µM; in [15] it was greater than 10 µM; in [16] it was greater than 10 µM. For the same compound, the IC50 in data set [18], in data set [19], in [20], in data set [21], in [22] and in [24] was greater than 10 µM each time. In addition, the IC50 (at Casein kinase II; in data set [25]; in [26]) was greater than 10 µM each time. In addition, 3 µM produced 0% inhibition at hERG (KCNH2) [17]. Also, the inhibition in vivo at 3 mg/kg in the data set with Rattus norvegicus [23] turned out to be 94%. Also, the concentration in solution in data set [27] (solubility) was 81 µg/mL (≈ 227 µM).
For the compound `CC(C)c1nnc2ccc(-c3ocnc3-c3cc(F)ccc3F)cn12`, the bioavailability in data set [28] came out at 40%; in data set [34], 58%. Also, the IC50 in the data set filed under Homo sapiens amounted to 0.259 µM; with Monocyte, 0.025 µM; in data set [13], 0.0058 µM. The same compound came in with an ED50 in the data set filed under Rattus norvegicus [29] of 0.3 mg/kg. The Vd in data set [30] turned out to be 0.8 L/kg; in data set [32], 1.3 L/kg. Further, the Papp B→A in data set [31] turned out to be 29 ×10⁻⁶ cm/s. In data set [33], this compound showed a Papp A→B of 43 ×10⁻⁶ cm/s. The compound also came in with an inhibition at 1 µM at hERG (KCNH2) [35] of 0%. Further, the solubility in data set [27] came to 8.1 µg/mL (≈ 23.8 µM).

For orientation: IC50 means the concentration needed to halve the response being measured. In general, inhibition refers to the percentage by which the read-out fell short of the control. In general, inhibition in vivo refers to the drop in the measured response relative to a control, in per cent. A word on the solubility: it is how much of the substance goes into solution per volume. Usually bioavailability stands for the share of a dose that reaches the circulation, judged against a reference dose that is usually intravenous. A word on the ED50: it is the dose at which the effect has come halfway, by size or by number of responders. The term Papp B→A denotes the apparent permeability from the basolateral to the apical side of a cell layer. Usually Papp A→B stands for how fast a substance crosses the layer from the apical side.
